Experimental data from patent US7153869B2, “Substituted amino acids as erythropoietin mimetics” (priority 1998, dated 2006).
Read-outs that look alike come from different tables or passages of the source.

Biological target: T1, EBP-Ig (N-terminal 225 amino acids of the human EPO receptor joined to an Ig heavy chain) (Homo sapiens, UniProt P19235)
T1 construct: Ig heavy chain (fusion partner); made in house; host or cells: NSO cells (secreted into conditioned media)
T1 sequence (P19235 25-250 limits assumed): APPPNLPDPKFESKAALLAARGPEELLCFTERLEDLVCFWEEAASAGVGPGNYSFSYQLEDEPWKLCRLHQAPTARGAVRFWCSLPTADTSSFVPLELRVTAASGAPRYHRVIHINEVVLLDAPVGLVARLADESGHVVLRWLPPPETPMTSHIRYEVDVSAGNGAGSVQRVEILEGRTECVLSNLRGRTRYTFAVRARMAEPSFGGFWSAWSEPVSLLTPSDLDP
Test: Inhibition of [125I]EPO binding to immobilized EBP-Ig (EPO binding protein-Ig), scintillation Flash plate competition assay
Conditions: for IC30 μM (Inhibition of EPO binding to EBP-Ig): 0–500 μM test compound; for % inh @ 50 μM (Inhibition of EPO binding to EBP-Ig): 50 μM test compound, average % inhibition

[1] = read-out: IC50, μM (Inhibition of EPO binding to EBP-Ig), 0.5 nM [125I]EPO, concentration reducing corrected total binding to 50%
[2] = read-out: % inh @ 50 μM (Inhibition of EPO binding to EBP-Ig)

SMILES | IC30 μM (Inhibition of EPO binding to EBP-Ig) (0.5 nM [125I]EPO) [µM] | % inh @ 50 μM (Inhibition of EPO binding to EBP-Ig) (0.5 nM [125I]EPO) [%] | IC50 [1] [µM] | EPO/EBP-Ig % inh @ 50 μM (50 μM compound, Table 13) [%] | further results
O=C(O)CCC(C(=O)NCCOCCOCCNC(=O)C(CCC(=O)O)N(Cc1cccc(NC(=O)c2ccco2)c1)Cc1cccc(Oc2ccccc2)c1)N(Cc1cccc(NC(=O)c2ccco2)c1)Cc1cccc(Oc2ccccc2)c1 (stereo not drawn) [compound 248] | 7 | 56 | 20 | – | EPO/EBP-Ig % inh @ 50 μM (Table 11, 50 μM): 56%
Cc1ccc(C(=O)Nc2cccc(CN(Cc3cccc(Oc4ccccc4)c3)C(CCC(=O)O)C(=O)NCCOCCOCCNC(=O)C(CCC(=O)O)N(Cc3cccc(NC(=O)c4ccc(C)cc4)c3)Cc3cccc(Oc4ccccc4)c3)c2)cc1 (stereo not drawn) [compound 249] | 7 | 72 | 10 | – | EPO/EBP-Ig % inh @ 50 μM (Table 11, 50 μM): 72%
Cc1ccc(S(=O)(=O)Nc2cccc(CN(Cc3cccc(Oc4ccccc4)c3)C(CCC(=O)O)C(=O)NCCOCCOCCNC(=O)C(CCC(=O)O)N(Cc3cccc(NS(=O)(=O)c4ccc(C)cc4)c3)Cc3cccc(Oc4ccccc4)c3)c2)cc1 (stereo not drawn) [compound 250] | 7 | – | – | – | IC50: 20 µM; inhibition at 50 µM [2]: 78%; inhibition at 50 µM (read-out: EPO/EBP-Ig % inh @ 50 μM, Table 11, 50 μM): 78%
O=C(O)CCC(C(=O)NCCOCCOCCNC(=O)C(CCC(=O)O)N(CC=Cc1ccccc1)CC=Cc1ccccc1)N(CC=Cc1ccccc1)CC=Cc1ccccc1 (stereo not drawn) [compound 251] | 10 | 49 | 45 | – | EPO/EBP-Ig % inh @ 50 μM (50 μM compound, Table 12): 49%
CC(C)(C)OC(=O)CC(C(=O)NCCCOCCCCOCCCNC(=O)C(CC(=O)OC(C)(C)C)N(C/C=C/c1cccc(Oc2ccc(C(C)(C)C)cc2)c1)C/C=C/c1cccc(Oc2ccc(C(C)(C)C)cc2)c1)N(C/C=C/c1cccc(Oc2ccc(C(C)(C)C)cc2)c1)C/C=C/c1cccc(Oc2ccc(C(C)(C)C)cc2)c1 (stereo not drawn) [compound 252] | – | – | – | – | EPO/EBP-Ig % inh @ 50 μM (50 μM compound, Table 12): −4%
CC(C)(C)OC(=O)CC(C(=O)NCCCOCCOCCOCCCNC(=O)C(CC(=O)OC(C)(C)C)N(C/C=C/c1cccc(Oc2ccc(C(C)(C)C)cc2)c1)C/C=C/c1cccc(Oc2ccc(C(C)(C)C)cc2)c1)N(C/C=C/c1cccc(Oc2ccc(C(C)(C)C)cc2)c1)C/C=C/c1cccc(Oc2ccc(C(C)(C)C)cc2)c1 (stereo not drawn) [compound 253] | – | – | – | – | EPO/EBP-Ig % inh @ 50 μM (50 μM compound, Table 12): −5%
CC(C)(C)OC(=O)CC(C(=O)NCCCCCCCCCCNC(=O)C(CC(=O)OC(C)(C)C)N(C/C=C/c1cccc(Oc2ccc(C(C)(C)C)cc2)c1)C/C=C/c1cccc(Oc2ccc(C(C)(C)C)cc2)c1)N(C/C=C/c1cccc(Oc2ccc(C(C)(C)C)cc2)c1)C/C=C/c1cccc(Oc2ccc(C(C)(C)C)cc2)c1 (stereo not drawn) [compound 254] | – | – | – | – | EPO/EBP-Ig % inh @ 50 μM (50 μM compound, Table 12): −9%
CC(C)(C)OC(=O)CC(C(=O)NCCCCCCCCCCCCNC(=O)C(CC(=O)OC(C)(C)C)N(C/C=C/c1cccc(Oc2ccc(C(C)(C)C)cc2)c1)C/C=C/c1cccc(Oc2ccc(C(C)(C)C)cc2)c1)N(C/C=C/c1cccc(Oc2ccc(C(C)(C)C)cc2)c1)C/C=C/c1cccc(Oc2ccc(C(C)(C)C)cc2)c1 (stereo not drawn) [compound 255] | – | – | – | – | EPO/EBP-Ig % inh @ 50 μM (50 μM compound, Table 12): 0%
CC(C)(C)OC(=O)CC(C(=O)NCCOCCOCCNC(=O)C(CC(=O)OC(C)(C)C)N(C/C=C/c1cccc(Oc2ccc(C(C)(C)C)cc2)c1)C/C=C/c1cccc(Oc2ccc(C(C)(C)C)cc2)c1)N(C/C=C/c1cccc(Oc2ccc(C(C)(C)C)cc2)c1)C/C=C/c1cccc(Oc2ccc(C(C)(C)C)cc2)c1 (stereo not drawn) [compound 256] | – | – | – | – | EPO/EBP-Ig % inh @ 50 μM (50 μM compound, Table 12): 10%
CC(C)(C)OC(=O)NCCCCC(C(=O)NCCCOCCOCCOCCCNC(=O)C(CCCCNC(=O)OC(C)(C)C)N(Cc1ccc(OCc2ccccc2)cc1)Cc1ccc(OCc2ccccc2)cc1)N(Cc1ccc(OCc2ccccc2)cc1)Cc1ccc(OCc2ccccc2)cc1 (stereo not drawn) [compound 257] | – | – | – | −26 | –
CC(C)(C)OC(=O)NCCCCC(C(=O)NCCCOCCCCOCCCNC(=O)C(CCCCNC(=O)OC(C)(C)C)N(Cc1ccc(OCc2ccccc2)cc1)Cc1ccc(OCc2ccccc2)cc1)N(Cc1ccc(OCc2ccccc2)cc1)Cc1ccc(OCc2ccccc2)cc1 (stereo not drawn) [compound 258] | – | – | – | −24 | –
CC(C)(C)OC(=O)NCCCCC(C(=O)NCCCCCCCCCCCCNC(=O)C(CCCCNC(=O)OC(C)(C)C)N(Cc1ccc(OCc2ccccc2)cc1)Cc1ccc(OCc2ccccc2)cc1)N(Cc1ccc(OCc2ccccc2)cc1)Cc1ccc(OCc2ccccc2)cc1 (stereo not drawn) [compound 259] | – | – | – | −13 | –
CC(C)(C)OC(=O)NCCCCC(C(=O)NCCOCCOCCNC(=O)C(CCCCNC(=O)OC(C)(C)C)N(Cc1ccc(OCc2ccccc2)cc1)Cc1ccc(OCc2ccccc2)cc1)N(Cc1ccc(OCc2ccccc2)cc1)Cc1ccc(OCc2ccccc2)cc1 (stereo not drawn) [compound 260] | – | – | – | −12 | –
NCCCCC(C(=O)NCCOCCOCCNC(=O)C(CCCCN)N(Cc1ccc(OCc2ccccc2)cc1)Cc1ccc(OCc2ccccc2)cc1)N(Cc1ccc(OCc2ccccc2)cc1)Cc1ccc(OCc2ccccc2)cc1 (stereo not drawn) [compound 261] | 1.5 | 51 | 2 | 51 | –
O=C(O)CCC(=O)NCCCCC(C(=O)NCCOCCOCCNC(=O)C(CCCCNC(=O)CCC(=O)O)N(Cc1ccc(OCc2ccccc2)cc1)Cc1ccc(OCc2ccccc2)cc1)N(Cc1ccc(OCc2ccccc2)cc1)Cc1ccc(OCc2ccccc2)cc1 (stereo not drawn) [compound 262] | 1 | – | 1.5 | – | –
O=C(O)CCCC(=O)NCCCCC(C(=O)NCCOCCOCCNC(=O)C(CCCCNC(=O)CCCC(=O)O)N(Cc1ccc(OCc2ccccc2)cc1)Cc1ccc(OCc2ccccc2)cc1)N(Cc1ccc(OCc2ccccc2)cc1)Cc1ccc(OCc2ccccc2)cc1 (stereo not drawn) [compound 263] | 1 | 88 | 1.5 | 88 | –
CC(C)(CC(=O)O)CC(=O)NCCCCC(C(=O)NCCOCCOCCNC(=O)C(CCCCNC(=O)CC(C)(C)CC(=O)O)N(Cc1ccc(OCc2ccccc2)cc1)Cc1ccc(OCc2ccccc2)cc1)N(Cc1ccc(OCc2ccccc2)cc1)Cc1ccc(OCc2ccccc2)cc1 (stereo not drawn) [compound 264] | 1.5 | 89 | 8 | 89 | –
O=C(O)CCC(=O)NCCCCC(C(=O)NCCCOCCCCOCCCNC(=O)C(CCCCNC(=O)CCC(=O)O)N(Cc1ccc(OCc2ccccc2)cc1)Cc1ccc(OCc2ccccc2)cc1)N(Cc1ccc(OCc2ccccc2)cc1)Cc1ccc(OCc2ccccc2)cc1 (stereo not drawn) [compound 265] | 1 | 65 | 6 | 65 | –
O=C(O)CCCC(=O)NCCCCC(C(=O)NCCCOCCCCOCCCNC(=O)C(CCCCNC(=O)CCCC(=O)O)N(Cc1ccc(OCc2ccccc2)cc1)Cc1ccc(OCc2ccccc2)cc1)N(Cc1ccc(OCc2ccccc2)cc1)Cc1ccc(OCc2ccccc2)cc1 (stereo not drawn) [compound 266] | 1 | 82 | 4 | 82 | –
CC(C)(CC(=O)O)CC(=O)NCCCCC(C(=O)NCCCOCCCCOCCCNC(=O)C(CCCCNC(=O)CC(C)(C)CC(=O)O)N(Cc1ccc(OCc2ccccc2)cc1)Cc1ccc(OCc2ccccc2)cc1)N(Cc1ccc(OCc2ccccc2)cc1)Cc1ccc(OCc2ccccc2)cc1 (stereo not drawn) [compound 267] | 2 | 83 | 6 | 83 | –
CC(C)(CC(=O)O)CC(=O)NCCCCC(C(=O)NCCCCCCCCCCCCNC(=O)C(CCCCNC(=O)CC(C)(C)CC(=O)O)N(Cc1ccc(OCc2ccccc2)cc1)Cc1ccc(OCc2ccccc2)cc1)N(Cc1ccc(OCc2ccccc2)cc1)Cc1ccc(OCc2ccccc2)cc1 (stereo not drawn) [compound 268] | – | 40 | – | 40 | –
O=C(O)CCCC(=O)NCCCCC(C(=O)NCCCCCCCCCCCCNC(=O)C(CCCCNC(=O)CCCC(=O)O)N(Cc1ccc(OCc2ccccc2)cc1)Cc1ccc(OCc2ccccc2)cc1)N(Cc1ccc(OCc2ccccc2)cc1)Cc1ccc(OCc2ccccc2)cc1 (stereo not drawn) [compound 269] | 8 | – | 85 | – | –
O=C(O)CCC(=O)NCCCCC(C(=O)NCCCCCCCCCCCCNC(=O)C(CCCCNC(=O)CCC(=O)O)N(Cc1ccc(OCc2ccccc2)cc1)Cc1ccc(OCc2ccccc2)cc1)N(Cc1ccc(OCc2ccccc2)cc1)Cc1ccc(OCc2ccccc2)cc1 (stereo not drawn) [compound 270] | 7 | 56 | 100 | 56 | –
O=C(O)CCC(=O)NCCCCC(C(=O)NCCCOCCOCCOCCCNC(=O)C(CCCCNC(=O)CCC(=O)O)N(Cc1ccc(OCc2ccccc2)cc1)Cc1ccc(OCc2ccccc2)cc1)N(Cc1ccc(OCc2ccccc2)cc1)Cc1ccc(OCc2ccccc2)cc1 (stereo not drawn) [compound 271] | 2 | 77 | 7 | 77 | –
O=C(O)CCCC(=O)NCCCCC(C(=O)NCCCOCCOCCOCCCNC(=O)C(CCCCNC(=O)CCCC(=O)O)N(Cc1ccc(OCc2ccccc2)cc1)Cc1ccc(OCc2ccccc2)cc1)N(Cc1ccc(OCc2ccccc2)cc1)Cc1ccc(OCc2ccccc2)cc1 (stereo not drawn) [compound 272] | 5 | – | 10 | – | –
NCCCCC(C(=O)O)N(Cc1cccc(Oc2ccccc2)c1)C(=O)C=Cc1cccc(OCc2ccccc2)c1 (stereo not drawn) [compound 286] | 35 | – | 65 | – | inhibition at 50 µM [2]: 46%; inhibition at 50 µM (read-out: EPO/EBP-Ig % inh @ 50 μM, 50 μM compound, Table 15): 46%
